# Measured values: PMC5478727, “A Novel Small Molecule GDNF Receptor RET Agonist, BT13, Promotes Neurite Growth from Sensory Neurons in Vitro and Attenuates Experimental Neuropathy in the Rat” (Frontiers in Pharmacology, 2017)
# Experiments:
# opioid receptor mu (MOP) = opioid receptor mu (MOP) (Homo sapiens, UniProt P35372); assay: CEREP Mu (MOP) (h) (agonist radioligand); assay type: binding; details: BT13 1 μM; Cat. No. 0118; average of duplicate; read-out: Percentage of inhibition/potentiation from control
# Sequence of opioid receptor mu (MOP) (P35372 whole entry): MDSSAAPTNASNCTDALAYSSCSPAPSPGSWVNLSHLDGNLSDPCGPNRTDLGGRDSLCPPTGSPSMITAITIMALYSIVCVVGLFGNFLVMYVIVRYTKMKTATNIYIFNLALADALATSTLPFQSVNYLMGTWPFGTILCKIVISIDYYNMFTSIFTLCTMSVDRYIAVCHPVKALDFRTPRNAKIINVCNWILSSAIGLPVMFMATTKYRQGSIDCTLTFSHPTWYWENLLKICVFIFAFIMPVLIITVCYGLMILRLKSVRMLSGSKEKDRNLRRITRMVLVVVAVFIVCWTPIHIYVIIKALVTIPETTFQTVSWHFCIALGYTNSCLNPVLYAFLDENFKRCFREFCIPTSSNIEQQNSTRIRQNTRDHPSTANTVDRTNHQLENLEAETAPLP
# [1] = system: adrenergic receptor alpha 1; assay: CEREP Alpha 1 (non-selective; antagonist radioligand); assay type: binding; details: BT13 1 μM; Cat. No. 0008; average of duplicate
# adenosine receptor A1 = adenosine receptor A1 (Homo sapiens, UniProt P30542); assay: CEREP A1 (h) (antagonist radioligand); assay type: binding; details: BT13 1 μM; Cat. No. 0002; average of duplicate; read-out: Percentage of inhibition/potentiation from control
# Sequence of adenosine receptor A1 (P30542 whole entry): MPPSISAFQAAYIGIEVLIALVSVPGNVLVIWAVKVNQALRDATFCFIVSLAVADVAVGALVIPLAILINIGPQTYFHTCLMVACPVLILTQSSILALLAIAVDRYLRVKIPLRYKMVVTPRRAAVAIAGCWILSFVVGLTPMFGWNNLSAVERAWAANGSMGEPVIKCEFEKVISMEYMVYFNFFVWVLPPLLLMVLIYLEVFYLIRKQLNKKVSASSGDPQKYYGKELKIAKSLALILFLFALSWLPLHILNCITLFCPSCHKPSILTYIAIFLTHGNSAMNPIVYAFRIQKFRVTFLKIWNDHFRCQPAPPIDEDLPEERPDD
# [2] = molecular target: T1, vasoactive intestinal peptide receptor PAC1 (PACAP) (Homo sapiens, UniProt P41586); assay: CEREP PAC1 (PACAP) (h) (agonist radioligand); assay type: binding; details: BT13 1 μM; Cat. No. 1518; average of duplicate; read-out: Percentage of inhibition/potentiation from control
# T1 construct: purchased CEREP (contract assay) 1518
# T1 sequence (P41586 21-468): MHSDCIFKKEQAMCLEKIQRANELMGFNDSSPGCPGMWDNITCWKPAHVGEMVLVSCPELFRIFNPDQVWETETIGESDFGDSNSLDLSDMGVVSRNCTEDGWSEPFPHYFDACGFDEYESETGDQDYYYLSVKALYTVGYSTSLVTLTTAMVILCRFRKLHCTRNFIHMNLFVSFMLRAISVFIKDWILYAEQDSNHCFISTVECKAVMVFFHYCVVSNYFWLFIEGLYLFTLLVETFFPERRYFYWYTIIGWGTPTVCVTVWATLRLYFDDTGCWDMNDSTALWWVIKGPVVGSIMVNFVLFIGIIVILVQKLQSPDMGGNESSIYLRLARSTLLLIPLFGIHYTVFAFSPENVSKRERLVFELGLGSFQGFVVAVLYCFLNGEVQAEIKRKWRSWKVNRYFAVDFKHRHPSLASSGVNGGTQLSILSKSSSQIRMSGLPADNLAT
# TrkB = molecular target: T2, TrkB (Rattus norvegicus, UniProt Q63604); assay: Luciferase reporter-gene assay, TrkB reporter cells; assay type: cell-based; details: TrkB reporter cell line
# T2 construct: expressed in transfected cells; host or cells: MG87 murine fibroblasts (MG87TrkB)
# T2 sequence (Q63604 32-821): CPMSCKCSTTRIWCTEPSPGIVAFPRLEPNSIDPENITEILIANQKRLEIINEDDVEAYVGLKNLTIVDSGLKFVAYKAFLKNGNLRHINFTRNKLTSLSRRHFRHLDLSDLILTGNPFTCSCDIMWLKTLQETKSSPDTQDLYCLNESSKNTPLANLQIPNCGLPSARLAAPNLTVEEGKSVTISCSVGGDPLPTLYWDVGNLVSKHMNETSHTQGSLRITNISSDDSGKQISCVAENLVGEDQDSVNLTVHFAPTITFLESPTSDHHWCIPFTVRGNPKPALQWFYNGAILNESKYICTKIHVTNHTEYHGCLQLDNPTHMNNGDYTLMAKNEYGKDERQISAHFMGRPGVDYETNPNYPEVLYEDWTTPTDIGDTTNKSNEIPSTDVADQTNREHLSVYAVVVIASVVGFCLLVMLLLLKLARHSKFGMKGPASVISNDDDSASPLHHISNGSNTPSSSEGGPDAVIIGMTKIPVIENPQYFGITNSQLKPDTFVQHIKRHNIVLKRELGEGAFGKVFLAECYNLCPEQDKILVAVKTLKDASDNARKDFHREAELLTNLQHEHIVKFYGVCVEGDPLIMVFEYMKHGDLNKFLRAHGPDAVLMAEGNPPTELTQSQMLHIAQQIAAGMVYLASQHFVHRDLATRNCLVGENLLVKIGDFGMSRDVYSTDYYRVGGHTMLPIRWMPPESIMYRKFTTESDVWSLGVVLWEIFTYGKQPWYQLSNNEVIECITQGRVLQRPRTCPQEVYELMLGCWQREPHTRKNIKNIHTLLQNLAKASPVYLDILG
# CYP2C19 = molecular target: T3, CYP2C19 (Homo sapiens, UniProt P33261); assay: CYP inhibition, fluorescent assay; assay type: biochemical; details: read-out: Inhibition of CYP isoforms (IC50), CYP2C19
# T3 construct: Cyathus Exquirere (contract laboratory)
# T3 sequence (P33261 whole entry, canonical isoform): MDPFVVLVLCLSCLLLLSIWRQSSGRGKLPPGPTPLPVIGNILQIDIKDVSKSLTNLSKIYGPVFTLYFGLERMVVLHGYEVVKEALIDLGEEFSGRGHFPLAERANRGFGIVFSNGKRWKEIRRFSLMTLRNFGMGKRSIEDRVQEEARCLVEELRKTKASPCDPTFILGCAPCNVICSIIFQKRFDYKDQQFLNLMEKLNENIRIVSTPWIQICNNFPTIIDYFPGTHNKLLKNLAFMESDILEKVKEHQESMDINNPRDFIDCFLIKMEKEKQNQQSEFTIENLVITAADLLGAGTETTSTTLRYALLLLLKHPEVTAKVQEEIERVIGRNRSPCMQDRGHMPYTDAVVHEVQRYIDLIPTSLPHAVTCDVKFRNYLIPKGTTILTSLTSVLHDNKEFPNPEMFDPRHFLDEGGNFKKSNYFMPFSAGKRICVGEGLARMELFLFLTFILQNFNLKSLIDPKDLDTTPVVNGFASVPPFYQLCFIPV
# [3] = molecular target: T4, hERG (human Ether-à-go-go-related gene) (Homo sapiens, UniProt Q12809); assay: hERG competition assay with [3H]-astemizole; assay type: binding; details: competition with [3H]-astemizole; membranes of HEK293 cells; read-out: hERG inhibition (Ki)
# T4 construct: host or cells: HEK293
# T4 sequence (Q12809 whole entry): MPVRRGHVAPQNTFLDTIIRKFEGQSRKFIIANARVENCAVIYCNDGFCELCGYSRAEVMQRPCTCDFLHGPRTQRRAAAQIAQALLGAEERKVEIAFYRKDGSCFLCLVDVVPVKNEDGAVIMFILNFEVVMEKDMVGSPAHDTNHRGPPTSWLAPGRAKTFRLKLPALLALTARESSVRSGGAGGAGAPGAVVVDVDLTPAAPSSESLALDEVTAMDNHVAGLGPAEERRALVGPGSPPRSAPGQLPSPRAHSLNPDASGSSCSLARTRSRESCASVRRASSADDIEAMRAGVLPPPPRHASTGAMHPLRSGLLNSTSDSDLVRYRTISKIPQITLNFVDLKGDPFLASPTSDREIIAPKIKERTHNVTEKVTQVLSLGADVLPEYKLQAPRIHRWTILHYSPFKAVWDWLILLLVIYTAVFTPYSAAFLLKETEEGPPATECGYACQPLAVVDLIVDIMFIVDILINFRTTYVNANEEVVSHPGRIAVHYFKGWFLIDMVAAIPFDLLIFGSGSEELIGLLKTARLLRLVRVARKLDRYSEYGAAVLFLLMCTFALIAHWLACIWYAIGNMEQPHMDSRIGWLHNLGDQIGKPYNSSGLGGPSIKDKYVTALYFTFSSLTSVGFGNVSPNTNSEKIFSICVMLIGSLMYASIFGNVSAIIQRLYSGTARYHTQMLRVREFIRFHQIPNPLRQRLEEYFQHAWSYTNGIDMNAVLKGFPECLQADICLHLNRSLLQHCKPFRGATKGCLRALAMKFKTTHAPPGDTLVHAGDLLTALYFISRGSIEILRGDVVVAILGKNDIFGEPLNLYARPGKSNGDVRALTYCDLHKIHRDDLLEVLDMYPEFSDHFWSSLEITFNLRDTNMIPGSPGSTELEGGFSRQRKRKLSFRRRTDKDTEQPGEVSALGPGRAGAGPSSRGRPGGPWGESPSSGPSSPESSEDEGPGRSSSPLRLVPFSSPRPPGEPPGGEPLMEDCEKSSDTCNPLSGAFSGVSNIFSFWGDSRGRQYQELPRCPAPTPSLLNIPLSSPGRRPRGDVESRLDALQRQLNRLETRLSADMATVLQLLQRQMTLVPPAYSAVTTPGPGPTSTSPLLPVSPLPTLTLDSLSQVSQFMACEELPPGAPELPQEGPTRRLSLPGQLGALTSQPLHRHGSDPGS
smiles,measurement,setting,value
CCN(CC)S(=O)(=O)c1ccc(OC)c(N2CCN(C(=O)c3ccc(F)cc3C(F)(F)F)CC2)c1 [BT13],inhibition at 1 µM,opioid receptor mu (MOP),1%
same,Percentage of inhibition/potentiation from control,[1],2%
same,inhibition at 1 µM,adenosine receptor A1,5%
same,inhibition at 1 µM,[2],14%
same,activation of luciferase reporter,TrkB,did not activate luciferase
same,IC50,CYP2C19,> 100 µM
same,Ki,[3],> 30 µM
